Assay results as given in patent US9315503B2, “Kinase inhibitors” (CHIESI FARMACEUTICI S.p.A., priority 2011, dated 2016).
pIC50: −log10 of the molar value. Where a name gives a salt, the structure may show the parent alone.

molecular target: T1, p38alpha (Homo sapiens, UniProt Q16539); test: P38Alpha enzyme inhibition assay (Alphascreen kinase activity assay); assay type: biochemical; conditions: 100 pM p38alpha, 250 μM ATP, 2 hours pre-incubation at 25° C., read-out: p38α inhibition (IC50 values)
T1 construct: purchased Invitrogen PV3304
T1 sequence (Q16539 whole entry): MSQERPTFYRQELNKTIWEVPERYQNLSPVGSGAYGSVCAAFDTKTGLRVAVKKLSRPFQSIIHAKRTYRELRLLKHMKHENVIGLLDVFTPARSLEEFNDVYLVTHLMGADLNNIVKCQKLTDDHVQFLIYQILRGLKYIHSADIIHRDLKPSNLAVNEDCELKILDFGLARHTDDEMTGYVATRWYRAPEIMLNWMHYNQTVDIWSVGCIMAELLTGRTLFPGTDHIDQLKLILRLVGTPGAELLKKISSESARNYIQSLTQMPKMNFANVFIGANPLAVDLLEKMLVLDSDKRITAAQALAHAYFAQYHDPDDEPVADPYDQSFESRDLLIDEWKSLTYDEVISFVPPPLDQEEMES
Protocol: P38Alpha Enzyme Inhibition Assay.
The inhibitory activity of compounds was determined using an Alphascreen® (Perkin Elmer) based kinase activity assay. Kinase reactions consisted of 25 mM HEPES pH 7.5, 10 mM MgCl2, 100 μM Na3VO4, 2 mM DTT, 0.05 mg/ml Tween 20, 100 pM p38alpha (Invitrogen, PV3304), 1% DMSO and 0.3 μg/ml ATF-2 fusion protein (New England Biolabs, 9224). Compounds were incubated under these conditions for 2 hours, at 25° C., prior to the initiation of the kinase activity by the addition of the 250 μM ATP. Reaction volumes were 20 uL. After 1 hr at 25° C. reactions were stopped by the adding 10 uL of 25 mM HEPES pH 7.5 containing 62.5 mM EDTA, 0.05% Triton X-100, 10% BSA and 0.83 ng/uL anti-phospho-ATF2 antibody (Abeam, ab28812). Detection was performed by measuring luminescence following the addition of Alphascreen Donor beads (Perkin Elmer 6765300) and Protein A Alphascreen Acceptor beads (Perkin Elmer 6760137), both at a final concentration of 20 ug/ml. IC50 values were determined from concentration-response curves.

Row | pIC50 | Structure (SMILES)
1 | > 8.00 | Cc1ccc(-n2nc(C(C)(C)C)cc2NC(=O)N[C@H]2CC[C@@H](Oc3ccc4nnc([C@@H]5CCCN5)n4c3)c3ccccc32)cc1 [Example 6, 1-(5-tert-Butyl-2-p-tolyl-2H-pyrazol-3-yl)-3-[(1S,4R)-4-((S)-3-pyrrolidin-2-yl-[1,2,4]triazolo[4,3-a]pyridin-6-yloxy)-1,2,3,4-tetrahydro-naphthalen-1-yl]-urea]
2 | 6.30 to 7.00 | Cc1ccc(-n2nc(C(C)(C)C)cc2NC(=O)N[C@H]2CC[C@@H](OCCN3CCOCC3)c3ccccc32)cc1 [Example 32, 1-(5-tert-Butyl-2-p-tolyl-2H-pyrazol-3-yl)-3-[(1S,4R)-4-(2-morpholin-4-yl-ethoxy)-1,2,3,4-tetrahydro-naphthalen-1-yl]-urea]
3 | > 8.00 | Cc1ccc(-n2nc(C(C)(C)C)cc2NC(=O)N[C@H]2CC[C@@H](Oc3ccc4nnc(N(C)CCN5CCOCC5)n4c3)c3ccccc32)cc1 [Example 45, 1-(5-tert-Butyl-2-p-tolyl-2H-pyrazol-3-yl)-3-((1S,4R)-4-{3-[methyl-(2-morpholin-4-yl-ethyl)-amino]-[1,2,4]triazolo[4,3-a]pyridin-6-yloxy}-1,2,3,4-tetrahydro-naphthalen-1-yl)-urea]
4 | > 8.00 | Cc1ccc(-c2nc(C(C)(C)C)[nH]c2NC(=O)N[C@H]2CC[C@@H](Oc3ccc4nnc(N5CCCCC5)n4c3)c3ccccc32)cc1 [Example 51, 1-(2-tert-Butyl-5-p-tolyl-3H-imidazol-4-yl)-3-[(1S,4R)-4-(3-piperidin-1-yl-[1,2,4]triazolo[4,3-a]pyridin-6-yloxy)-1,2,3,4-tetrahydro-naphthalen-1-yl]-urea]
5 | > 8.00 | Cc1ccc(-n2nc(C(C)(C)C)cc2NC(=O)N[C@H]2CC[C@@H](Oc3ccc4nnc(CN5CCN(C)C(CO)C5)n4c3)c3ccccc32)cc1 (stereo partly drawn) [Example 56, 1-(5-tert-Butyl-2-p-tolyl-2H-pyrazol-3-yl)-3-{(1S,4R)-4-[3-(3-hydroxymethyl-4-methyl-piperazin-1-ylmethyl)-[1,2,4]triazolo[4,3-a]pyridin-6-yloxy]-1,2,3,4-tetrahydro-naphthalen-1-yl}-urea]
6 | > 8.00 | Cc1ccc(-n2nc(C(C)(C)C)cc2NC(=O)N[C@H]2CC[C@@H](Oc3ccc4nnc([C@@H]5C[C@@H](F)CN5C)n4c3)c3ccccc32)cc1 [Example 91, 1-(5-tert-Butyl-2-p-tolyl-2H-pyrazol-3-yl)-3-{(1S,4R)-4-[3-((2S,4R)-4-fluoro-1-methyl-pyrrolidin-2-yl)-[1,2,4]triazolo[4,3-a]pyridin-6-yloxy]-1,2,3,4-tetrahydro-naphthalen-1-yl}-urea]
7 | > 8.00 | C[C@H]1CCCCN1c1nnc2ccc(O[C@@H]3CC[C@H](NC(=O)Nc4cc(C(C)(C)C)nn4-c4cccc(CCN5CCOCC5)c4)c4ccccc43)cn12 [Example 131, 1-{5-tert-Butyl-2-[3-(2-morpholin-4-yl-ethyl)-phenyl]-2H-pyrazol-3-yl}-3-{(1S,4R)-4-[3-((S)-2-methyl-piperidin-1-yl)-[1,2,4]triazolo[4,3-a]pyridin-6-yloxy]-1,2,3,4-tetrahydro-naphthalen-1-yl}-urea formate salt]
8 | > 8.00 | C[C@H]1CCCCN1c1nnc2ccc(O[C@@H]3CC[C@H](NC(=O)Nc4cc(C(C)(C)C)nn4-c4cccc(CCN5CCCC5)c4)c4ccccc43)cn12 [Example 132, 1-{5-tert-Butyl-2-[3-(2-pyrrolidin-1-yl-ethyl)-phenyl]-2H-pyrazol-3-yl}-3-{(1S,4R)-4-[3-((S)-2-methyl-piperidin-1-yl)-[1,2,4]triazolo[4,3-a]pyridin-6-yloxy]-1,2,3,4-tetrahydro-naphthalen-1-yl}-urea formate salt]
9 | > 8.00 | CCN(C)CCc1cccc(-n2nc(C(C)(C)C)cc2NC(=O)N[C@H]2CC[C@@H](Oc3ccc4nnc(N5CCCC[C@@H]5C)n4c3)c3ccccc32)c1 [Example 133, 1-(5-tert-Butyl-2-{3-[2-(ethyl-methyl-amino)-ethyl]-phenyl}-2H-pyrazol-3-yl)-3-{(1S,4R)-4-[3-((S)-2-methyl-piperidin-1-yl)-[1,2,4]triazolo[4,3-a]pyridin-6-yloxy]-1,2,3,4-tetrahydro-naphthalen-1-yl}-urea formate salt]
10 | > 8.00 | C[C@H]1CCCCN1c1nnc2ccc(O[C@@H]3CC[C@H](NC(=O)Nc4cc(C(C)(C)C)nn4-c4cccc(CCN(C)C)c4)c4ccccc43)cn12 [Example 134, 1-{5-tert-Butyl-2-[3-(2-dimethylamino-ethyl)-phenyl]-2H-pyrazol-3-yl}-3-{(1S,4R)-4-[3-((S)-2-methyl-piperidin-1-yl)-[1,2,4]triazolo[4,3-a]pyridin-6-yloxy]-1,2,3,4-tetrahydro-naphthalen-1-yl}-urea formate salt]
11 | > 8.00 | C[C@H]1CCCCN1c1nnc2ccc(O[C@@H]3CC[C@H](NC(=O)Nc4cc(C(C)(C)C)nn4-c4cccc(CCN5CCCCC5)c4)c4ccccc43)cn12 [Example 135, 1-{5-tert-Butyl-2-[3-(2-piperidin-1-yl-ethyl)-phenyl]-2H-pyrazol-3-yl}-3-{(1S,4R)-4-[3-((S)-2-methyl-piperidin-1-yl)-[1,2,4]triazolo[4,3-a]pyridin-6-yloxy]-1,2,3,4-tetrahydro-naphthalen-1-yl}-urea formate salt]
12 | > 8.00 | C[C@H]1CCCCN1c1nnc2ccc(O[C@@H]3CC[C@H](NC(=O)Nc4cc(C(C)(C)C)nn4-c4cccc(CCN5CCN(C)CC5)c4)c4ccccc43)cn12 [Example 136, 1-(5-tert-Butyl-2-{3-[2-(4-methyl-piperazin-1-yl)-ethyl]-phenyl}-2H-pyrazol-3-yl)-3-{(1S,4R)-4-[3-((S)-2-methyl-piperidin-1-yl)-[1,2,4]triazolo[4,3-a]pyridin-6-yloxy]-1,2,3,4-tetrahydro-naphthalen-1-yl}-urea formate salt]
13 | > 8.00 | C[C@H]1CCCCN1c1nnc2ccc(O[C@@H]3CC[C@H](NC(=O)Nc4cc(C(C)(C)C)nn4-c4cccc(CCN5CCCOCC5)c4)c4ccccc43)cn12 [Example 137, 1-{5-tert-Butyl-2-[3-(2-[1,4]oxazepan-4-yl-ethyl)-phenyl]-2H-pyrazol-3-yl}-3-{(1S,4R)-4-[3-((S)-2-methyl-piperidin-1-yl)-[1,2,4]triazolo[4,3-a]pyridin-6-yloxy]-1,2,3,4-tetrahydro-naphthalen-1-yl}-urea formate salt]
14 | > 8.00 | C[C@H]1CCCCN1c1nnc2ccc(O[C@@H]3CC[C@H](NC(=O)Nc4cc(C(C)(C)C)nn4-c4cccc(CCN5CCCN(C)CC5)c4)c4ccccc43)cn12 [Example 138, 1-(5-tert-Butyl-2-{3-[2-(4-methyl-[1,4]diazepan-1-yl)-ethyl]-phenyl}-2H-pyrazol-3-yl)-3-{(1S,4R)-4-[3-((S)-2-methyl-piperidin-1-yl)-[1,2,4]triazolo[4,3-a]pyridin-6-yloxy]-1,2,3,4-tetrahydro-naphthalen-1-yl}-urea formate salt]
15 | > 8.00 | C[C@H]1COCCN1c1nnc2ccc(O[C@@H]3CC[C@H](NC(=O)Nc4cc(C(C)(C)C)nn4CCO)c4ccccc43)cn12 [Example 139, 1-[5-tert-Butyl-2-(2-hydroxy-ethyl)-2H-pyrazol-3-yl]-3-{(1S,4R)-4-[3-((S)-3-methyl-morpholin-4-yl)-[1,2,4]triazolo[4,3-a]pyridin-6-yloxy]-1,2,3,4-tetrahydro-naphthalen-1-yl}-urea]
16 | > 8.00 | C[C@H]1CCCCN1c1nnc2ccc(O[C@@H]3CC[C@H](NC(=O)Nc4cc(C(C)(C)C)nn4-c4ccnc(N(C)CCN(C)C)n4)c4ccccc43)cn12 [Example 140]
17 | > 8.00 | C[C@H]1COCCN1c1nnc2ccc(O[C@@H]3CC[C@H](NC(=O)Nc4cc(C(C)(C)C)nn4-c4cccc(OCCN(C)C)c4)c4ccccc43)cn12 [Example 141, 1-{5-tert-Butyl-2-[3-(2-dimethylamino-ethoxy)-phenyl]-2H-pyrazol-3-yl}-3-{(1S,4R)-4-[3-((S)-3-methyl-morpholin-4-yl)-[1,2,4]triazolo[4,3-a]pyridin-6-yloxy]-1,2,3,4-tetrahydro-naphthalen-1-yl}-urea formate salt]
18 | > 8.00 | C[C@H]1COCCN1c1nnc2ccc(O[C@@H]3CC[C@H](NC(=O)Nc4cc(C(C)(C)C)nn4CCN4CCOCC4)c4ccccc43)cn12 [Example 142, 1-[5-tert-Butyl-2-(2-morpholin-4-yl-ethyl)-2H-pyrazol-3-yl]-3-{(1S,4R)-4-[3-((S)-3-methyl-morpholin-4-yl)-[1,2,4]triazolo[4,3-a]pyridin-6-yloxy]-1,2,3,4-tetrahydro-naphthalen-1-yl}-urea formate salt]
19 | > 8.00 | C[C@@H]1CCC[C@H](C)N1c1nnc2ccc(O[C@@H]3CC[C@H](NC(=O)Nc4cc(C(C)(C)C)nn4-c4cccc(CN5CCN(C)CC5)c4)c4ccccc43)cn12 [Example 143, 1-{5-tert-Butyl-2-[3-(4-methyl-piperazin-1-ylmethyl)-phenyl]-2H-pyrazol-3-yl}-3-{(1S,4R)-4-[3-((2S,6R)-2,6-dimethyl-piperidin-1-yl)-[1,2,4]triazolo[4,3-a]pyridin-6-yloxy]-1,2,3,4-tetrahydro-naphthalen-1-yl}-urea formate salt]
